These results are taken from ChEMBL document CHEMBL3046132, “Design and synthesis of thienopyridines as novel templates for acetylcholinesterase inhibitors” (2013).

In this assay the test system is Rattus norvegicus. Put plainly: In vivo inhibition of AchE in Wistar albino Rattus norvegicus (rat) brain at 10 mg/kg, po after 30 min relative to untreated control. It is filed as functional. Conditions: 0.5 h.
For the compound `Cc1sc2nc3c(c(NCCCCNC(=O)CCCCC4CCSS4)c2c1C)CCCC3` (stereo not drawn), the inhibition in vivo at 10 mg/kg was 42.9%.
As for `Cc1sc2nc3c(c(NCCCCN4C(=O)c5ccccc5C4=O)c2c1C)CCCC3`, testing at 10 mg/kg gave an inhibition in vivo of 55.6%.
`O=C1c2ccccc2C(=O)N1CCNCCCNc1c2c(nc3sc4c(c13)CCCC4)CCCC2`: the inhibition in vivo at 10 mg/kg worked out at 43.9%.
The compound `Cc1sc2nc3c(c(NCCCCNc4c5c(nc6sc(C)c(C)c46)CCCC5)c2c1C)CCCC3` registered an inhibition in vivo at 10 mg/kg of 41.5%.
`Cc1sc2nc3c(c(NCCCNc4c5c(nc6sc(C)c(C)c46)CCCC5)c2c1C)CCCC3` came in with an inhibition in vivo at 10 mg/kg of 25.1%.
To `Cc1sc2nc3c(c(NCCCN4C(=O)c5ccccc5C4=O)c2c1C)CCCC3` belongs 46.2%; to `O=C1c2ccccc2C(=O)N1CCCCNc1c2c(nc3sc4c(c13)CCCC4)CCCC2`, 29.8%.
Take `O=C(CCCCC1CCSS1)NCCCNc1c2c(nc3sc4c(c13)CCCC4)CCCC2` (stereo not drawn): the inhibition in vivo at 10 mg/kg came out at 56.7%.
As for `C(CCNc1c2c(nc3sc4c(c13)CCCC4)CCCC2)CNc1c2c(nc3sc4c(c13)CCCC4)CCCC2`, testing at 10 mg/kg gave an inhibition in vivo of 35.7%.
For the compound `O=C1c2ccccc2C(=O)N1CCNCCCCNc1c2c(nc3sc4c(c13)CCCC4)CCCC2`, the inhibition in vivo at 10 mg/kg was 45%.
In turn, `O=C1c2ccccc2C(=O)N1CCCNc1c2c(nc3sc4c(c13)CCCC4)CCCC2` registered an inhibition in vivo at 10 mg/kg of 42.7%.
In the case of `Nc1c2c(nc3ccccc13)CCCC2` [TACRINE], the inhibition in vivo at 10 mg/kg is 54.9%.
`O=C(CCCCC1CCSS1)NCCCCNc1c2c(nc3sc4c(c13)CCCC4)CCCC2` (stereo not drawn) showed an inhibition in vivo at 10 mg/kg of 21.4%.
